In brackets after ≈: the same amount, converted by molar mass. Read-outs that look alike come from different tables or passages of the source.
How the values were obtained:
[1] = system: S. aureus and E. faecalis; design: method as in PMID 18835348; conditions: ref 36; cited from earlier work
E. aerogenes ATCC 13048 = assay: Broth microdilution assay, E. aerogenes; format: cell-based, Enterobacter aerogenes; conditions: for inhibition at 50 µM: Klebsiella aerogenes, ATCC13048, 24 h, read-out: Inhibitory effect (%) E. aerogenes ATCC 13048
Method in brief: (§1)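 Broth microdilution per CLSI/EUCAST in Mueller Hinton II broth, 5×10^5 cfu/mL, 24 h at 37°C with agitation; growth by absorbance at 620 nm versus controls. Compounds first screened at 50 µM.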

E. coli ATCC 25922 = assay: Broth microdilution assay, E. coli; format: cell-based, Escherichia coli
Method in brief: as §1

E. faecalis ATCC 29212 = assay: Broth microdilution assay, E. faecalis; format: cell-based, Enterococcus faecalis; conditions: for Inhibitory effect (%) E. faecalis ATCC 29212 / inhibition at 50 µM: 50 µM, 24 h, inhibition of growth, mean ± SD; for inhibition at 50 µM: ATCC29212, 24 h, read-out: Inhibitory effect (%) E. faecalis ATCC 29212
Method in brief: as §1

P. aeruginosa ATCC 27853 = assay: Broth microdilution assay, P. aeruginosa; format: cell-based, Pseudomonas aeruginosa
Method in brief: as §1

S. aureus ATCC 25923 = assay: Broth microdilution assay, S. aureus; format: cell-based, Staphylococcus aureus; conditions: for inhibition at 50 µM: ATCC25923, 24 h
Method in brief: as §1

C. albicans ATCC 90028 = assay: Broth microdilution assay, C. albicans; format: cell-based, Candida albicans
Method in brief: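 Candida albicans ATCC 90028 was grown on Sabouraud Dextrose Agar at 27°C for 16–18 h, then suspended in sterile 0.9% saline. Broth microdilution in clear 96-well plates mixed equal volumes of yeast suspension and diluted sample. Plates were incubated with agitation at 35°C for 48 h. Absorbance at 620 nm was read at 0, 24 and 48 h, and growth inhibition was expressed as a percentage relative to controls.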

in vitro = format: cell-based, human; conditions: human, 24 h exposure, 5% FBS; for cytotoxicity at 24 h, 50 µM: ATP content, read-out: Cytotoxicity (%) Huh-7 cells; for IC50 at 24 h: ATP assay, read-out: IC50 cytotoxicity Huh-7 cells
Method in brief: (§2)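 Cytotoxicity read-out: intracellular ATP (CellTiter-Glo luminescence) in Huh-7 hepatoma cells seeded at 20000 cells/well, cultured overnight, then exposed to compounds for 24 h at 37°C in 5% FBS medium. Polymyxin B sulphate (15000 IU/mL) served as positive control.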

Huh-7 cells = assay: in vitro; format: cell-based, human; conditions: for Cytotoxicity (%) Huh-7 cells: 50 µM, 24 h exposure, ATP content, 5% FBS; for Effect on Huh-7 cell monolayer in ATP assay: 100 µM, 24 h
Method in brief: as §2

[2] = system: S. aureus, E. coli, B. subtilis and Micrococcus luteus; design: method as in PMID 12601674, PMID 7500642, PMID 8590637; conditions: ref 19, 33, 34; cited from earlier work
[3] = system: B. subtilis, S. aureus, S. pyogenes, Staphylococcus saprophyticus, E. coli, P. aeruginosa and Shigella sonnei; design: method as in PMID 23684720; conditions: ref 37; cited from earlier work
[4] = system: all microbial strains tested; assay: Primary antimicrobial screening, all strains; format: cell-based; conditions: 50 µM
Excerpt: Gram-negative strains Escherichia coli (ATCC 25922), Enterobacter aerogenes (ATCC 13048) and Pseudomonas aeruginosa (ATCC 27853), Gram-positive strains Staphylococcus aureus (ATCC 25923) and Enterococcus faecalis (ATCC 29212), and fungal strain Candida albicans (ATCC 90028) were obtained from Microbiologics Inc., and used for the antimicrobial screening. Strains were selected according to the guidelines set for clinical laboratories by Clinical and Laboratory Standards Institute [CLSI, formerly National Committee on Clinical Laboratory Standards [22]] and the European Committee on Antimicrobial Susceptibility Testing (EUCAST). Bacterial strains were grown on Mueller Hinton II Agar (MHA) (BBL, BD) and Mueller Hinton II broth (MHB) (BBL, BD), whereas Candida was initiated on Sabouraud Dextrose Agar (SDA) (Difco, BD) plates. Media were prepared into MilliQ water according to manufacturer’s instruction and autoclaved at 121°C for 15 min. Bacteria were plated on MHA plates and incubated at 37°C for 16–18 h. […] Absorbance was measured at 620 nm with Victor plate reader (Wallac 1420, Perkin Elmer) at 0, 4 and 24 h with the bacteria, and at 0, 24 and 48 h with Candida. The antimicrobial activity of the samples was calculated from the absorbance values by comparing to the controls, and expressed as a percentage inhibition of growth. […]

S. aureus = assay: Effect of BSA on antimicrobial activity (S. aureus microdilution assay); format: cell-based, Staphylococcus aureus; conditions: compound at MIC90 6.25 µM
Method: The effect of bovine serum albumin (BSA) on antimicrobial activity was assessed by using the S. aureus microdilution assay in a similar manner as described above, but with increasing concentrations of BSA, ranging from 0.023 nM to 25 µM [23].
As described above, the antimicrobial activities of betulin derivatives seen in the microdilution assay were not detectable in the host-pathogen co-culture assay. Since the assay was performed in cell culture media containing 7.5% of fetal bovine serum, this was suspected to be the reason. Serum is rich in proteins, the most abundant of these being albumin. First, we performed the normal antibacterial assay by replacing the Mueller Hinton II broth with the cell culture media. […] The activity of compound 5 was clearly affected by the added BSA: at 24 nM concentration the activity was reduced by 50% and at concentration 390 nM the activity was completely lost. As a comparison, the concentration of albumin in human serum is typically 36–48 g/L which corresponds to […] concentration. Albumin is capable of interacting with many organic and inorganic molecules and functions as a key controller of intercellular fluxes [43]–[52]. Majority of therapeutic compounds are reversibly bound to plasma proteins, but the degree and nature of the binding differs. […]

[5] = 50 µM, 24 h, inhibition of growth, mean ± SD
[6] = Escherichia coli, ATCC25922, 24 h; read-out: Inhibitory effect (%) E. coli ATCC 25922
[7] = Pseudomonas aeruginosa, ATCC27853, 24 h; read-out: Inhibitory effect (%) P. aeruginosa ATCC 27853
[8] = Staphylococcus aureus, 50 µM, 24 h, inhibition of growth, mean ± SD, read-out: Inhibitory effect (%) S. aureus ATCC 25923
[9] = 50 µM, 48 h at 35°C, inhibition of growth, mean ± SD
[10] = Candida albicans, ATCC90028, 48 h; read-out: Inhibitory effect (%) C. albicans ATCC 90028

Compound: CC1(C)CC[C@]2(C(=O)O)CC[C@]3(C)C(=CC[C@@H]4[C@@]5(C)CC[C@H](O)C(C)(C)[C@@H]5CC[C@]43C)[C@@H]2C1 [OA, oleanolic acid]
- MIC against S. aureus and E. faecalis [1]: 8 to 64 µg/mL

Compound: C[C@H]1[C@H](C)CC[C@]2(C(=O)O)CC[C@]3(C)C(=CC[C@@H]4[C@@]5(C)CC[C@H](O)C(C)(C)[C@@H]5CC[C@]43C)[C@H]12 [UA, ursolic acid]
- MIC against S. aureus and E. faecalis [1]: 4 to 8 µg/mL

Compound: C=C(C)[C@@H]1CC[C@]2(C(=O)O)CC[C@]3(C)[C@H](CC[C@@H]4[C@@]5(C)CC[C@H](O)C(C)(C)[C@@H]5CC[C@]43C)[C@@H]12 [Compound 19, betulinic acid]
- Inhibitory effect (%) E. aerogenes ATCC 13048 (E. aerogenes ATCC 13048; [5]): 38.2±3.0%
- inhibition at 50 µM (E. aerogenes ATCC 13048; [5]): 38%
- inhibition at 50 µM (E. coli ATCC 25922; [6]): 20.2 ± 6.1%
- Inhibitory effect (%) E. faecalis ATCC 29212 (E. faecalis ATCC 29212): 55.9±5.0%
- inhibition at 50 µM (E. faecalis ATCC 29212; Enterococcus faecalis): 56%
- inhibition at 50 µM (P. aeruginosa ATCC 27853; [7]): 6.7 ± 1.4%
- inhibition at 50 µM (S. aureus ATCC 25923; [8]): 22.8 ± 5.4%
- Inhibitory effect (%) C. albicans ATCC 90028 (C. albicans ATCC 90028; [9]): inactive
- inhibition at 50 µM (C. albicans ATCC 90028; [10]): 21.6 ± 2.6%
- cytotoxicity at 24 h, 50 µM (in vitro; Huh-7 cells): 30%
- Cytotoxicity (%) Huh-7 cells (Huh-7 cells): 31.6±15.7%
- Activity against S. aureus, E. coli, B. subtilis and Micrococcus luteus [2]: inactive
- MIC against S. aureus and E. faecalis [1]: > 256 µg/mL

Compound: CC1(C)C=C2[C@H]3CC[C@@H]4[C@@]5(C)CC[C@H](O)C(C)(C)[C@@H]5CC[C@@]4(C)[C@]3(C)CC[C@@]2(C(=O)O)CC1 [MA, morolic acid]
- MIC against a panel of seven different bacterial species [3]: ≥ 100 µg/mL

Compound: C=C(C)C1CCC2(COC(C)=O)CCC3(C)C(CCC4C5(C)CCC(=O)C(C)(C)C5CCC43C)C12 (centres unmarked) [Compound 21]
- Inhibitory effect (%) E. aerogenes ATCC 13048 (E. aerogenes ATCC 13048; [5]): 12.6±6.2%
- Inhibitory effect (%) E. coli ATCC 25922 (E. coli ATCC 25922; [5]): 2.6±1.8%
- Inhibitory effect (%) E. faecalis ATCC 29212 (E. faecalis ATCC 29212): 5.7±13.4%
- Inhibitory effect (%) P. aeruginosa ATCC 27853 (P. aeruginosa ATCC 27853; [5]): 4.7±2.0%
- Inhibitory effect (%) S. aureus ATCC 25923 (S. aureus ATCC 25923; [5]): 0.7±3.4%
- Inhibitory effect (%) C. albicans ATCC 90028 (C. albicans ATCC 90028; [9]): -13.9±24.7%
- Cytotoxicity (%) Huh-7 cells (Huh-7 cells): -3.9±1.1%
- Activity against all microbial strains tested [4]: inactive

Compound: C=C(C)[C@@H]1CC[C@]2(COC(=O)c3ccccc3NC(C)=O)CC[C@]3(C)C(CCC4[C@@]5(C)CC[C@H](O)C(C)(C)C5CC[C@]43C)C12 (some centres unmarked) [Compound 5, 28-O-(N-acetylanthraniloyl)betulin]
- inhibition at 50 µM (E. aerogenes ATCC 13048): 25.2 ± 2%
- inhibition at 50 µM (E. coli ATCC 25922; Escherichia coli, ATCC25922, 24 h, read-out: Inhibitory effect (%) E. coli ATCC 25922): 0.5 ± 3.1%
- Inhibitory effect (%) E. faecalis ATCC 29212 (E. faecalis ATCC 29212): 98.5±0.2%
- MIC90 (E. faecalis ATCC 29212; Enterococcus faecalis, ATCC29212, read-out: MIC90 against E. faecalis): 6.25 µM (≈ 3.77 µg/mL)
- inhibition at 50 µM (P. aeruginosa ATCC 27853; Pseudomonas aeruginosa, ATCC27853, 24 h, read-out: Inhibitory effect (%) P. aeruginosa ATCC 27853): 12.3 ± 2.3%
- Inhibitory effect (%) S. aureus ATCC 25923 (S. aureus ATCC 25923; [5]): 100.2±0.1%
- inhibition at 50 µM (S. aureus ATCC 25923; Staphylococcus aureus, read-out: Inhibitory effect (%) S. aureus ATCC 25923, 50 µM, 24 h, inhibition of growth, mean ± SD): > 90%
- MIC90 (S. aureus ATCC 25923; Staphylococcus aureus, ATCC25923, read-out: MIC90 against S. aureus): 6.25 µM (≈ 3.77 µg/mL)
- inhibition at 50 µM (C. albicans ATCC 90028; Candida albicans, ATCC90028, 48 h, read-out: Inhibitory effect (%) C. albicans ATCC 90028): 10 ± 5.2%
- cytotoxicity at 24 h, 50 µM (in vitro): 30 ± 3%
- IC50 at 24 h (in vitro): 56 µM
- Effect on Huh-7 cell monolayer in ATP assay (Huh-7 cells): completely destroyed the cell monolayer
- BSA concentration at which the activity was completely lost (S. aureus): 390 nM
- BSA concentration at which the activity was reduced by 50% (S. aureus): 24 nM

Compound: CCn1c(=O)n2n(c1=O)C1(C(C)C)CCC3(COC(C)=O)CCC4(C)C(=C31)C2CC1C2(C)CCC(OC(C)=O)C(C)(C)C2CCC14C (centres unmarked) [Compound 43]
- inhibition at 50 µM (E. aerogenes ATCC 13048; [5]): 18.5 ± 2.2%
- inhibition at 50 µM (E. coli ATCC 25922; [6]): -3.7%
- inhibition at 50 µM (E. faecalis ATCC 29212; Enterococcus faecalis): 57.1 ± 4.4%
- inhibition at 50 µM (P. aeruginosa ATCC 27853; [7]): 1.7 ± 1.7%
- inhibition at 50 µM (S. aureus ATCC 25923; [8]): 2.9 ± 0.7%
- inhibition at 50 µM (C. albicans ATCC 90028; [10]): -9.7%
- cytotoxicity at 24 h, 50 µM (in vitro): 85%
- IC50 at 24 h (in vitro): 16 µM
- Cytotoxicity (%) Huh-7 cells (Huh-7 cells): 86.0±2.0%
- Effect on Huh-7 cell monolayer in ATP assay (Huh-7 cells): completely destroyed the cell monolayer

Compound: C=C(C)C1CCC2(COC(C)=O)CCC3(C)C(CCC4C5(C)CCC(OC(C)=O)C(C)(C)C5CCC43C)C12 (centres unmarked) [Compound 14]
- Inhibitory effect (%) E. aerogenes ATCC 13048 (E. aerogenes ATCC 13048; [5]): 8.1±9.0%
- Inhibitory effect (%) E. coli ATCC 25922 (E. coli ATCC 25922; [5]): -1.8±2.1%
- Inhibitory effect (%) E. faecalis ATCC 29212 (E. faecalis ATCC 29212): 22.8±17.5%
- Inhibitory effect (%) P. aeruginosa ATCC 27853 (P. aeruginosa ATCC 27853; [5]): 3.9±0.6%
- Inhibitory effect (%) S. aureus ATCC 25923 (S. aureus ATCC 25923; [5]): 13.8±3.2%
- Inhibitory effect (%) C. albicans ATCC 90028 (C. albicans ATCC 90028; [9]): -1.1±18.3%
- Cytotoxicity (%) Huh-7 cells (Huh-7 cells): -11.1±3.8%
- Activity against all microbial strains tested [4]: inactive
